# Measurements from US4921865A, “Aminoacylates of glycerol acetal” (Societe de Conseils de Recherches et d'Applications …, priority 1987, dated 1990).
# What was measured:
# [1] = system: platelets (PAF induced platelet aggregation); assay: inhibition of PAF-induced platelet aggregation in platelet rich plasma; type: cell-based, New Zealand rabbits; settings: Oryctolagus cuniculus; rabbit platelet rich plasma, 2.5 nM PAF
# Protocol: 1--INHIBITION OF THE PLATELETS AGGREGATION ON NEW ZEALAND RABBITS
# The experimentation was conducted on platelets with plasma of New Zealand rabbits.
# Blood samples were taken from auricular artery and placed in a citrate buffer (3.8 %; pH 7.4); blood was further centrifugated for 15 mn at 1200 RPM.
# The tested sample was prepared in DMSO, then poured on platelets rich plasma for 1 mn, then a dose of 2.5 nM of PAF was added.
# The determination is made on a Cronolog Coultronics apparatus which determines the transmission percentage corresponding to the maximum height of the peak before the desaggregation.
# The percentage of variation of the inhibition with respect to the transmission percentage is calculated (control: pure DMSO).
# This method was described in details in LABORATORY INVESTIGATIONS, Vol. 41, No. 3, p. 275, 1979, JEAN-PIERRE CAZENAVE, Dr. MED. , JACQUES BENVENISTE, Dr. MED., AND J. FRASER MUSTARD, M.D., "Aggregation of Rabbits Platelets by Platelet-Activating Factor Is Independent of the Release Reaction and the Arachidonate Pathway and Inhibited by Membrane-Active Drugs".
# Five tests made on 5 different rabbits allowed us to calculate the IC50 of the various compounds using the linear regression test.
# [2] = system: PAF-induced [Ca^2+ ]i mobilization, washed rabbits platelets; assay: inhibition of intracytosolic free calcium mobilization induced by PAF in washed rabbit platelets; type: cell-based; settings: PAF 2×10^-9 M; resting about 150 nM
# Protocol: Blood was taken from the auricular artery of the rabbit on citric acid/sodium citrate/dextrose and anticoagulan and the washed platelets were prepared according to Ardlie et al., Brit. J. Pharmacology, 19, 7-17, 1970. They were incubated with acetylsalicylic salt (100 μM, 30 minutes) to avoid thromboxane induced aggregation. They were then loaded with the fluorescent calcium indicator dye quin 2 by incubation with quin 2 aceto-methylester (15 μM in DMSO, 20 minutes at room temperature) which penetrates the cell membrane and after hydrolysed is trapped in the platelet. Drugs were preincubated with platelets for 15 minutes simultaneously to CP/CPK mixture which destroys secreted ADP.
# Fluorescent measurement was then performed (excitation λ=339 nm, emission λ=494 nm) after PAF addition to platelet suspension. The fluorescence intensity is proportional to the cytosolic free calcium level [Ca^2+ ]i which can be quantified as described by Tsien et al., J. Cell Biol., 94, 325-334, 1982.
# [3] = system: polymorphonuclear leukocytes (PMNs); assay: antagonism of polymorphonuclear leukocyte aggregation induced by PAF; type: cell-based, rat (Wistar); settings: PAF 10^-8, rat PMNs
# Protocol: Polymorphonuclear leukocytes (PMNs) were obtained as described by A. W. Ford-Hutchinson et al. (Br - J. Pharmacol. 76, 367-371, 1982). Cell suspensions ([…]) were prepared from peritoneal exudates obtained after a 5 ml IP injection of sodium caseinate 12% (w/v) to male Wistar rats, 300 g body weight.
# After centrifugation, cells were washed with Hanks and resuspended in MEM/Hepes 30 mM medium (PM=7.4) at a concentration of 10^7 cells/ml. Cytochalasin B (5 μg/ml) was added 10 minutes before trigering aggregation to amplify the PMNs aggregation. The light transmittance through the cell suspension (400 μl) was measured under a 900 R/mn magnetic stirring, with a dual beam aggregometer (Chronolog Corp. Coultronics.)
# The control cuvet is the cell suspension diluted to 20% of the cell count with MEM and the difference represents 100% transmittance. Change in transmittance, which occurs when PAF is added, was continuously recorded.
# Drugs solubilized in MEM/Hepes were added (4 μl) to PMNs suspension 2 minutes before PAF addition.
# [4] = target: T1, [^3 H]-PAF binding, platelet membrane (Oryctolagus cuniculus, UniProt G1TEI7); assay: inhibition of specific [3H]-PAF binding to rabbit platelet membranes; settings: 1 nM [3H]-PAF, 0°C 1 h 30
# T1 construct: Platelet membrane homogenate was stored at -80° C; from tissue; host or cells: rabbit platelets (membrane homogenate from lysed washed platelets)
# Protocol: Synthetic tritiated [^3 H]-PAF used was in ethanol solution with a specific activity of 59.5 ci/mmols. Unlabelled PAF and lyso-PAF were solubilized in ethanol solution and stored at -80° C. The compounds were solubilized in DMSO.
# Rabbit whole blood (6 volumes) was drawn from the central ear artery into 1 volume of ACD solution (citric acide 1.4 g, sodium citrate 2 5 g, Dextrose 2 g per 100 ml of H2 O) and centrifuged at 150 g for 15 minutes. The platelet-rich plasma (PRP) was carefully removed and centrifuged for 15 minutes at 1000 g. The platelet pellet was then washed 3 times: twice in Tris-HCl buffer 10 mM, pH 7.4 containing NaCl 150 mM, MgCl2 5 mM, EDTA 2 mM and the last time in the same but sodium-free buffer.
# The platelet pellet was resuspended in this latter buffer, quickly frozen in liquid nitrogen and slowly thawed at room temperature for at least 3 times as described by T. Y. Shen et al. The lysed platelets were centrifuged at 100,000 g for 30 minutes in a BECKMAN model L8.55 ultra centrifuge (rotor 50.2 Ti). Platelet membrane homogenate was stored at -80° C. and used within two weeks without noticeable changes in PAF-acether binding characteristics.
# Protein contain was determined by the Lowry method using bovine serum albumine as standard.
# 60 to 100 μg of membrane proteins were added to a final volume of 1 ml in plastic tubes containing 1 nM [^3 H]-PAF in Tris-HCl 10 mM pH 7 buffer containing 0.025 % bovine serum albumin and incubated with or without unlabelled PAF or PAF-antagonists. The incubation was carried out for 1 h 30 at 0° C. The bound [^3 H]-PAF was separated from the free [^3 H]-PAF by immediate filtration through whatman GF/C glass fiber filters under vacuum (Brandel system). The reaction and the filters were washed 3 times with 5 ml of ice-cold buffer. The filters were then placed into polyethylene phials filled up with 10 ml of liquid scintillation fluid and the radioactivity was measured by an LKB β counter with 45% efficiency.
# The non specific binding was determined in the presence of 10^-6 M of unlabelled PAF. The specific binding was calculated by substracting non specific binding from the total binding. The inhibition by compounds on the specific [^3 H]-PAF binding was determined as the percent inhibition by the equation: [formula]
# T1 sequence (G1TEI7 1-342): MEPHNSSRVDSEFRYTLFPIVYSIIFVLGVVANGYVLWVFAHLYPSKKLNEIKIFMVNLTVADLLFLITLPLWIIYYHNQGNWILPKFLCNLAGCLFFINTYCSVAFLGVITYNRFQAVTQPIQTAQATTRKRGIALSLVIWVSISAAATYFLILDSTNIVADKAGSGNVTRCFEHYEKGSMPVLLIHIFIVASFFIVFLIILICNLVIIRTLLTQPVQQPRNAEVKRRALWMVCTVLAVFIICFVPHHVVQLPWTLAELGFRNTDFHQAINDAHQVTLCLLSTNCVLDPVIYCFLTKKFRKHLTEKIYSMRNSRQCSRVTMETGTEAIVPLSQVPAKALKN
Compound,IC50 [1] [µM],further results
"CCCCCCCCCCCCCCCCOCC(COP(=O)([O-])OCC[N+](C)(C)C)OC(C)=O (stereo not drawn) [PAF, reference compound]",–,[Ca^2+ ]i level after stimulation [2]: 400 to 600 nM; aggregation of PMNs induced [3]: 55 to 70%
"CCCCCCCCCCCCCCCCCC1(CCC)OCC(COC(=O)CCC[n+]2ccccc2)O1 (stereo not drawn) [Example 6, 2-heptadecyl 2-(n-propyl 4-(4'-(N-pyridinium)butyryloxymethyl]1,3-dioxolan chloride]",3.04,–
"CCCCCCCCCC1(C)OCC(COC(=O)CCCCC[n+]2ccccc2)O1 (stereo not drawn) [Example 14, 2-nonyl 2-methyl 4-[6'-(N-pyridiniumhexanoyloxymethyl] 1,3-dioxolan bromide]",1.46,IC50 [4]: 0.61 µM
"CCCCCCCCCCCCCCCCCC1(C)OCC(COC(=O)CCC[n+]2cccc3ccccc32)O1 (stereo not drawn) [Example 2, 2-heptadecyl 2-methyl 4-[4'(N-quinolinium)butyryloxymethyl]1,3-dioxolan chloride]",1.2,–
"COc1cc(C2(C)OCC(COC(=O)CCC[n+]3ccccc3)O2)cc(OC)c1OC (stereo not drawn) [Example 8, 2-(3,4,5-trimethoxyphenyl) 2-methyl 4-[4'-(N-pyridinium)butyryloxymethyl] 1,3-dioxolan chloride]",11.3,–
"CCCCCCCCCCCCCCCCCC1(C)OCC(COC(=O)CCC[n+]2ccsc2)O1 (stereo not drawn) [Example 3, 2-heptadecyl 2-methyl 4-[4'-(N-thiazolinium)butyryloxymethyl]1,3-dixolan chloride]",21.5,–
"CCCCCCCCCCCCCCCCCC1(C)OCC(COC(=O)CCC[n+]2ccccc2)O1 (stereo not drawn) [Example 1, 2-heptadecyl 2-methyl 4-[4'-(N-pyridinium)butyryloxymethyl]-1,3-dioxolan chloride]",2.2,IC50 [4]: 0.45 µM

# Now from value to molecule, other results behind:
IC50 [1] [µM],Compound,further results
7,"CCCCCCCCCCCCCCCCCC1OCC(COC(=O)CCC[n+]2ccccc2)O1 (stereo not drawn) [Example 4, 2-heptadecyl 4-[4'-(N-pyridinium)butyryloxymethyl] 1,3-dioxolan chloride]",–
5,"CCCCCCCCCCCCCCCCCC1(C)OCC(COC(=O)CCCC[n+]2ccccc2)O1 (stereo not drawn) [Example 7, 2-heptadecyl 2-methyl 4-[5'-(N-pyridinium)pentanoyloxymethyl]1,3-dioxolanchloride]",–
3.1,"CCCCCCCCCCCCCCCCCC1OCC(COC(=O)CCC[n+]2cccc3ccccc32)O1 (stereo not drawn) [Example 5, 2-heptadecyl 4[4'-(N-quinolinium)butyryloxymethyl] 1,3 dioxalan chloride]",–
1.73,"CCCCCCCCCCCCCCCCCC1(CCC)OCC(COC(=O)CCCCC[n+]2ccccc2)O1 (stereo not drawn) [Example 13, 2-heptadecyl 2-(n-propyl) 4-[6'-(N-pyridinium)hexanoylmethyl] 1,3-dioxolanbromide]",–
31.2,"CCCCCCCCCCCCCCCCCC1(C)OCC(COC(=O)CCCCCCCCCC[n+]2ccccc2)O1 (stereo not drawn) [Example 12, 2-heptadecyl 2-methyl 4-[11'-(N-pyridiniumundecanoyloxymethyl) 1,3-dioxolan bromide]",–
